The source of these data is ChEMBL document CHEMBL5150044, “Macrocyclization of Quinazoline-Based EGFR Inhibitors Leads to Exclusive Mutant Selectivity for EGFR L858R and Del19” (J Med Chem, 2022).

In assay [1] the target is Epidermal growth factor receptor (Homo sapiens, UniProt P00533, EX19DEL).
Assay [2] addresses Epidermal growth factor receptor (Homo sapiens, UniProt P00533, L858R).
Assay [3] has as its target Epidermal growth factor receptor (Homo sapiens, UniProt P00533).
For assay [4], the target named is Epidermal growth factor receptor (Homo sapiens, UniProt P00533, L858R/T790M).
The target of assay [5] is T1, Mitogen-activated protein kinase 1 and 3 (ERK2 and ERK1) (Mus musculus) (UniProt P63085+Q63844). Nature of the assay: Inhibition of ERK1/2 phosphorylation in mouse BaF3 cells harboring L858R mutant assessed as ERK1/2 phosphorylation at 10 to 1000 nM incubated for 8 hrs by Western blot analysis. The class given is cell-based. The note with it: dose 10-1000 nM.
T1 sequence (P63085 whole entry, looked up): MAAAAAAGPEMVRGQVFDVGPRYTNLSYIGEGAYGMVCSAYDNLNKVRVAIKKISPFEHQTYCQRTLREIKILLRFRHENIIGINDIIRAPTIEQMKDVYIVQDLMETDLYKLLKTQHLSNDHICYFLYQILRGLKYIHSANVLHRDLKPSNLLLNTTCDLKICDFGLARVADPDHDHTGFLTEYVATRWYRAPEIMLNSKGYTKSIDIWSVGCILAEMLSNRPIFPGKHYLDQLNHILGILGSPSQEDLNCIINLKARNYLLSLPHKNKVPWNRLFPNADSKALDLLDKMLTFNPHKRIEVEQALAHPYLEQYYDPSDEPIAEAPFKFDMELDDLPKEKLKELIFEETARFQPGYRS
T1 sequence (Q63844 whole entry, looked up): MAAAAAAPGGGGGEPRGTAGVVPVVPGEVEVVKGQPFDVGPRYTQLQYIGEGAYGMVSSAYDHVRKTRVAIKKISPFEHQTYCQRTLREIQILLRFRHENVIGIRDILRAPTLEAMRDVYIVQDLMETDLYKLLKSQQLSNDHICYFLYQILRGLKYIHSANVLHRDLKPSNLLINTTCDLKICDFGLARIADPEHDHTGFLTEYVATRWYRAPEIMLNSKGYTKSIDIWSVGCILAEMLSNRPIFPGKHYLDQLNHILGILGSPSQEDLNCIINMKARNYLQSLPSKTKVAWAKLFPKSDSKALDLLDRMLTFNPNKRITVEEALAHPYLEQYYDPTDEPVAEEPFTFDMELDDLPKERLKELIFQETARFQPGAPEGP
The target in assay [6] is T1, Mitogen-activated protein kinase 1 and 3 (ERK2 and ERK1) (Mus musculus). The class given is cell-based. The settings on record: BaF3, dose 10-1000 nM, time 8.0 hrs.
In assay [7] the target is RAC-alpha serine/threonine-protein kinase (Mus musculus) (UniProt P31750). Type of assay: cell-based. The note with it: BaF3, dose 10-1000 nM, time 8.0 hrs.
Chain of RAC-alpha serine/threonine-protein kinase (Mus musculus) (P31750 whole entry): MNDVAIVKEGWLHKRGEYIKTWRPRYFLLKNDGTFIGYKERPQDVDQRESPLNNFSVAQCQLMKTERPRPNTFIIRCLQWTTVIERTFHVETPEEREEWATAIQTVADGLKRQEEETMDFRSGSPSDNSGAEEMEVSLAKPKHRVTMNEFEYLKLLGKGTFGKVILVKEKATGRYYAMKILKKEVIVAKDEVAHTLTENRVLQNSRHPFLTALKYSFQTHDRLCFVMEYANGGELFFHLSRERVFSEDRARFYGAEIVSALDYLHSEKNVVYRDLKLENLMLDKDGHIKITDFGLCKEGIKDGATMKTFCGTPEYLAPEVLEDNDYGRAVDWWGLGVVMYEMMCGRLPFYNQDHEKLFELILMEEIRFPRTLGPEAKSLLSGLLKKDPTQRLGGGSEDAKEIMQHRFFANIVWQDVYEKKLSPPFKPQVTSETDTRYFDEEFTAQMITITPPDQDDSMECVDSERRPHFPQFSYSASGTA
Assay [8] has the same target. Briefly: Inhibition of AKT phosphorylation in mouse BaF3 cells harboring L858R mutant assessed as […] phosphorylation at 10 to 1000 nM incubated for 8 hrs by Western blot analysis. The class given is cell-based. The note with it: dose 10-1000 nM. (In general: A western blot detects proteins with antibodies after separation by electrophoresis.)
The target in assay [9] is T1, Mitogen-activated protein kinase 1 and 3 (ERK2 and ERK1) (Mus musculus). Briefly: Inhibition of ERK1/2 phosphorylation in mouse BaF3 cells harboring Del19 mutant assessed as ERK1/2 phosphorylation at 10 to 1000 nM incubated for 8 hrs by Western blot analysis. The class given is cell-based. The note with it: dose 10-1000 nM.
For assay [10] the target is unchanged. The class given is cell-based. The settings on record: BaF3, dose 10-1000 nM, time 8.0 hrs. This is another data set of the same source.
In assay [11] the target is RAC-alpha serine/threonine-protein kinase (Mus musculus) (UniProt P31750). Nature of the assay: Inhibition of AKT phosphorylation in mouse BaF3 cells harboring Del19 mutant assessed as […] phosphorylation at 10 to 1000 nM incubated for 8 hrs by Western blot analysis. The class given is cell-based. The settings on record: dose 10-1000 nM.
Assay [12] has the same target. The class given is cell-based. The note with it: BaF3, dose 10-1000 nM, time 8.0 hrs. This is another data set of the same source.
Assay [13] relates to Epidermal growth factor receptor (Homo sapiens), P04626+P00533+Q15303+P21860 [L858R]. The note with it: Mus musculus; BaF3; dose 10-1000 nM, time 8.0 hrs.
The test system of assay [14] is BaF3. Briefly: cells. The note with it: Mus musculus, BaF3, 72 h.
The subject of assay [15] is BaF3. Briefly: cells. Type of assay: functional, cell-based. The settings on record: Mus musculus, BaF3, 72 h.
Description: Antiproliferative activity against mouse BaF3 cells expressing Del19 assessed as cell viability measured after 72 hrs hrs by CellTiter Glo assay
Assay [16] concerns BaF3. Briefly: cells. The settings on record: Mus musculus, BaF3, 72 h. The class given is functional, cell-based. This is another data set of the same source.
In assay [17] the test system is BaF3. Briefly: cells. The settings on record: Mus musculus, BaF3, 72 h. The source holds these as a separate data set.
The subject of assay [18] is BaF3. Nature of the assay: cells. The note with it: Mus musculus, BaF3, 72 h. This is another data set of the same source.
The subject of assay [19] is BaF3. Briefly: cells. The settings on record: Mus musculus, BaF3, 72 h. Type of assay: functional, cell-based. This is another data set of the same source.
Assay [20] deals with BaF3. Briefly: cells. The note with it: Mus musculus, BaF3, 72 h. This is another data set of the same source.
Assay [21] concerns BaF3. Briefly: cells. The note with it: Mus musculus, BaF3, 72 h. This is another data set of the same source.
Assay [22] concerns BaF3. Briefly: cells. The note with it: Mus musculus, BaF3, 72 h. The source holds these as a separate data set.
Description: Antiproliferative activity against mouse BaF3 cells expressing EGFR WT assessed as cell viability measured after 72 hrs hrs by CellTiter Glo assay
The subject of assay [23] is BaF3. Briefly: cells. The note with it: Mus musculus, BaF3, 72 h. The source holds these as a separate data set.
The subject of assay [24] is BaF3. Briefly: cells. The settings on record: Mus musculus, BaF3, 72 h. The source holds these as a separate data set.
The test system of assay [25] is BaF3. Briefly: cells. The class given is functional, cell-based. The note with it: Mus musculus, BaF3, 72 h. This is another data set of the same source.

The structures appear in SMILES notation. Active and inactive are the calls of the source. The calls are words filed in the database; no cut-off is given here.

Chain of Epidermal growth factor receptor (Homo sapiens, UniProt P00533) (P00533 whole entry): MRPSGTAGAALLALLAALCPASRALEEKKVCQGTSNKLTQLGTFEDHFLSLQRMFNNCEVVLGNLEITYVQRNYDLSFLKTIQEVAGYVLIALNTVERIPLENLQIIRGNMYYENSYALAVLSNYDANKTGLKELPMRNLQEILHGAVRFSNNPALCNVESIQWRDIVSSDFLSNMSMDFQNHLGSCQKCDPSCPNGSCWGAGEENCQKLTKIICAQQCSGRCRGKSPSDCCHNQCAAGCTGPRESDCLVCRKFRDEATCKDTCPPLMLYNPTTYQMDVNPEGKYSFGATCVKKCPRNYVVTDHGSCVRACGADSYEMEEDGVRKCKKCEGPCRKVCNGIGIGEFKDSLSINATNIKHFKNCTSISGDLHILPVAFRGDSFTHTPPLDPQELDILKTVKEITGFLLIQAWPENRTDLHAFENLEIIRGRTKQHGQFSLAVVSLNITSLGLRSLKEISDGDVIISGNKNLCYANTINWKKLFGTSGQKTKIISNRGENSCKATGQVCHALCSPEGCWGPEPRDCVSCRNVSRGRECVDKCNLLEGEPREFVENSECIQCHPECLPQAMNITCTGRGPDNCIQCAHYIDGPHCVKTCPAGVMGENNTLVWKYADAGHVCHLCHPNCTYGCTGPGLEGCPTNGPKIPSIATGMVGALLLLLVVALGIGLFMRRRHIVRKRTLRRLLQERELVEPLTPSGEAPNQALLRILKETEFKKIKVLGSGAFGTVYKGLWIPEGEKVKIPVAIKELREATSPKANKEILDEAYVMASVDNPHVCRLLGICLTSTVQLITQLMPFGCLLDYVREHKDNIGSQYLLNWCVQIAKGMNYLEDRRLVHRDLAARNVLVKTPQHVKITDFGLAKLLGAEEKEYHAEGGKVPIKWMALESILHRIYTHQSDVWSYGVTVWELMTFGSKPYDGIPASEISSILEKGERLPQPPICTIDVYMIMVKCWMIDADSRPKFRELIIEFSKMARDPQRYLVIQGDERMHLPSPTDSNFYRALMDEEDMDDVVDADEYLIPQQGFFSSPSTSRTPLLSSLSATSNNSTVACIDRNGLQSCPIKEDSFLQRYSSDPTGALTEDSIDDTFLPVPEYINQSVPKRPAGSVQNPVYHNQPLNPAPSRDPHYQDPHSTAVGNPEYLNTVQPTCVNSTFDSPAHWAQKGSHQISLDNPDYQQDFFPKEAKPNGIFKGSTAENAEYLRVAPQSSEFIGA
Chain of Epidermal growth factor receptor (Homo sapiens, UniProt P00533, EX19DEL) (P00533 whole entry, looked up, stated change not applied): as the sequence (P00533 whole entry) above
Chain of Epidermal growth factor receptor (Homo sapiens, UniProt P00533, L858R) (P00533 25-1210 L858R limits assumed): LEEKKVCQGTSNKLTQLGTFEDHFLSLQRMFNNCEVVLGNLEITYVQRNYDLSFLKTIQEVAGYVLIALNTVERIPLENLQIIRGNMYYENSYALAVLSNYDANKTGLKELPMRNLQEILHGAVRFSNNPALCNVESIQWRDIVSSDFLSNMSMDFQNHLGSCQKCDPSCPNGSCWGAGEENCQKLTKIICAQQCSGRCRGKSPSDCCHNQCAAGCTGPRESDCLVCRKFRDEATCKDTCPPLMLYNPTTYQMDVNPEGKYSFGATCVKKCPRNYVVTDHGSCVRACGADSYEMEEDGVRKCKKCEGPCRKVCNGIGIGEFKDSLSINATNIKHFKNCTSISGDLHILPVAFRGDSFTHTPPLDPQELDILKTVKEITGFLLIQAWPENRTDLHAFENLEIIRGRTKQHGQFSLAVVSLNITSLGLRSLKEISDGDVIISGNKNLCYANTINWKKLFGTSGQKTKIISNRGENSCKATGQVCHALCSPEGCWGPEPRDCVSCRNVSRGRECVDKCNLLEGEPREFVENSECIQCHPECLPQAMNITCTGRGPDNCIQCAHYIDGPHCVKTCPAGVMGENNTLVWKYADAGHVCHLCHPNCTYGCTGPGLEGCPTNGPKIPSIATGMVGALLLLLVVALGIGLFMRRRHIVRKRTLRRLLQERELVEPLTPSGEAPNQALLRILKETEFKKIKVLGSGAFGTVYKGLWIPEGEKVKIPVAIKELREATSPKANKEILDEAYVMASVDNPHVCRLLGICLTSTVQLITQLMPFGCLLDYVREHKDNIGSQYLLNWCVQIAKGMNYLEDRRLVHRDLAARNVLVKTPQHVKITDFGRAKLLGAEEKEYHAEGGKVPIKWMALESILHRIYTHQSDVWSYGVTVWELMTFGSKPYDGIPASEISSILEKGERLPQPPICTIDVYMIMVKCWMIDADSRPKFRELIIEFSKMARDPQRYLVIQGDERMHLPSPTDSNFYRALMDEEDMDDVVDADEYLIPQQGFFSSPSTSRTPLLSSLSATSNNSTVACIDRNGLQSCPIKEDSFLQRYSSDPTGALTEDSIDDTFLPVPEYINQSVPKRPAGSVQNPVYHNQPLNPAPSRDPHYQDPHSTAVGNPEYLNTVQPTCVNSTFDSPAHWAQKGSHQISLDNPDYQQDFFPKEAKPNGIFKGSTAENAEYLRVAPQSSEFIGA

Turning to `COc1cc2ncnc3c2cc1OCCCCCCOc1c(Cl)cccc1N3`, the IC50 (as a rule, the concentration needed to halve the response being measured) was 3030 nM in assay [1] and greater than 100000 nM in assay [2].

With `COc1cc2ncnc3c2cc1OCCCCCCOc1cccc(Cl)c1N3`, the figures for the IC50 in assay [3], in assay [1] and in assay [2] were greater than 100000 nM, 56.8 nM and 275 nM, respectively.

With `COc1cc2ncnc3c2cc1OCCOCCOc1ccccc1N3`, the 50% inhibitory concentration (IC50) was 1680 nM in assay [4], greater than 100000 nM in assay [3], 155 nM in assay [1] and 685 nM in [2].

In the case of `COc1cc2ncnc3c2cc1OCCOCCOCCOc1cc(Cl)ccc1N3`, the concentration for half-maximal inhibition (IC50) was greater than 100000 nM in assay [3], 16.2 nM in assay [1] and 38.3 nM in assay [2].

Regarding `COc1cc2ncnc3c2cc1OCCOCCOc1cc(Cl)ccc1N3`, the IC50 in assay [3] is greater than 100000 nM.

As for `COc1cc2ncnc3c2cc1OCCOCCOCCOc1ccccc1N3`, the IC50 in assay [3] is greater than 100000 nM; in assay [1], 1870 nM; in [2] it was 87.6 nM.

With `COc1cc2ncnc3c2cc1OCCCCCCOc1cc(Cl)ccc1N3`, the results for the IC50 in assay [3], in assay [1] and in assay [2] were greater than 100000 nM, 63500 nM and greater than 100000 nM, respectively.

For `COc1cc2ncnc3c2cc1OCCCCCCOc1ccc(Cl)cc1N3`, the half-maximal inhibitory concentration (IC50) is greater than 100000 nM in assay [3], 19.6 nM in assay [1] and 739 nM in [2].

For the molecule `COc1cc2ncnc3c2cc1OCCOCCOc1ccc(Cl)cc1N3`, the IC50 was greater than 100000 nM in [3], 24.9 nM in [1] and 128 nM in assay [2].

As to `COc1cc2ncnc3c2cc1OCCOCCOc1cccc(c1)N3`, the half-maximal inhibitory concentration (IC50) in assay [1] amounted to 33900 nM. This counts as double-digit micromolar.

Turning to `COc1cc2ncnc3c2cc1OCCOCCOCCOc1ccc(Cl)cc1N3`, the inhibition result in assay [5], in assay [6], in assay [7], in [8], in assay [9] and in assay [10] was “Active” throughout. Besides, the inhibition result in assay [11], in assay [12] and in [13] was “Active” throughout. Further, the 50% inhibitory concentration (IC50) in assay [3] was greater than 100000 nM; in assay [1], 0.3 nM; in assay [2], 0.7 nM.

`COc1cc2ncnc3c2cc1OCCCCCCOc1ccccc1N3`: half-maximal inhibition in [1] (IC50) was put at 491 nM.

With `COc1cc2ncnc3c2cc1OCCOCCOCCOc1cccc(Cl)c1N3`, the concentration for half-maximal inhibition (IC50) was greater than 100000 nM in [3], 42.9 nM in [1] and 32.6 nM in [2].

Regarding `COc1cc2ncnc3c2cc1OCCOCCOCCOc1cc(F)c(Cl)cc1N3`, the inhibition result in [5], in [6], in assay [7], in assay [8], in [9] and in [10] was “Active” each time. For the same molecule, the inhibition result in assay [11], in assay [12] and in assay [13] was “Active” each time. Besides, the IC50 was greater than 100000 nM in [3], 1.3 nM in assay [1] and 2.8 nM in [2].

For `Fc1cc2c(cc1Cl)Nc1ncnc3ccc(cc13)OCCOCCO2`, the concentration for half-maximal inhibition (IC50) came out at 5360 nM in the assay with BaF3 [14], 1030 nM in assay [1], 3100 nM in the assay on BaF3 [15] and 2760 nM in the assay with BaF3 [16].

As for `COc1cc2ncnc3c2cc1OCCOCCOc1ccc(Cl)c(c1)N3`, the half-maximal inhibitory concentration (IC50) in assay [3] was greater than 100000 nM; in assay [1], 70400 nM; in assay [2] it was 19900 nM.

On to `COc1cc2ncnc3c2cc1OCCOCCOc1cc(ccc1Cl)N3`, for which the IC50 turned out to be 493 nM in [1] and 1120 nM in assay [2].

Regarding `COc1cc2ncnc3c2cc1OCCOCCOc1c(Cl)cccc1N3`, in assay [1], the concentration for half-maximal inhibition (IC50) was 509 nM. This counts as sub-micromolar.

Consider `C=CC(=O)Nc1cc(Nc2ncc(C(=O)OC(C)C)c(-c3cn(C)c4ccccc34)n2)c(OC)cc1N(C)CCN(C)C` [MOBOCERTINIB], for which the IC50 with BaF3 [17] was 1130 nM; in the assay with BaF3 [14], 1.9 nM; in the assay on BaF3 [18], 3810 nM; in the assay with BaF3 [19] it was 9 nM; in the assay with BaF3 [15], 5 nM; in the assay with BaF3 [20] it was 27.1 nM. The IC50 in the assay with BaF3 [21] worked out at 47.6 nM; in the assay on BaF3 [16] it was 1060 nM; with BaF3 [22] it was 8.3 nM; with BaF3 [23] it was 2170 nM; in the assay with BaF3 [24] it was 8.9 nM; with BaF3 [25] it was 10.1 nM.

Consider `COc1cc2ncnc3c2cc1OCCCCCCOc1cc(F)c(Cl)cc1N3`, for which the IC50 in [3] was greater than 100000 nM; in assay [1], 235 nM; in assay [2], 655 nM.

For the molecule `COc1cc2ncnc3c2cc1OCCOCCOc1cc(Cl)cc(c1)N3`, half-maximal inhibition in assay [1] (IC50) required 6300 nM.
